Assay results: patent US6667313B1, “8-substituted-6-triflouromethyl-9-pyrido [3,2-G] quinoline compounds as androgen receptor modulators” (Ligand Pharmaceuticals Inc., priority 1999, dated 2003)

Columns and labels:
ER [1] = biological target: T1, ER (Homo sapiens, UniProt P03372); test: Co-transfection assay, ER antagonist; type: cell-based; conditions: Table 2; read-out: ER Potency Antag
T1 construct: expressed in transfected cells; host or cells: CV-1 cells (inferred: the only cells described for the co-transfection assay)
T1 sequence (P03372 1-595): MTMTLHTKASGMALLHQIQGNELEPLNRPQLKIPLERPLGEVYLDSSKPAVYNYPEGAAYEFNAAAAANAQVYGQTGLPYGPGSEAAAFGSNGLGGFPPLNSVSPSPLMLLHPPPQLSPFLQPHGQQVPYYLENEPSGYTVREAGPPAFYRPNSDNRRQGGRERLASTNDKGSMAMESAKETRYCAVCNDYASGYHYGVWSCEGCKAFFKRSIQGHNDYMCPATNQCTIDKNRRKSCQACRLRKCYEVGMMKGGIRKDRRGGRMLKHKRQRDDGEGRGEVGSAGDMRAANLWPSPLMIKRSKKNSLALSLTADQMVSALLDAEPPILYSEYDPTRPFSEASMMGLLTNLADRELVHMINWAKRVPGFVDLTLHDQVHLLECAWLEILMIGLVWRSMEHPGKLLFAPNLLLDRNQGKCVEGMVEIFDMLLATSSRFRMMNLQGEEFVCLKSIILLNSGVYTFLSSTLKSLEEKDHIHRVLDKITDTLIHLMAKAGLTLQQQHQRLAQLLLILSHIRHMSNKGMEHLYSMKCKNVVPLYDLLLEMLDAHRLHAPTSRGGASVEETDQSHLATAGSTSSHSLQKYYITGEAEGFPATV

ER [2] = biological target: T1, ER; test: Co-transfection assay, ER agonist; type: cell-based; conditions: Table 2; read-out: ER Potency Agon

CC(C)(O)C(=O)Nc1ccc([N+](=O)[O-])c(C(F)(F)F)c1 [Flut]
IC50 (ER [1]): > 10 µM
EC50 (ER [2]): > 10 µM
